The source made the active and inactive calls.
What was measured:
Troponin, cardiac muscle = Troponin, cardiac muscle (Homo sapiens, UniProt P19429+P45379+P63316); experiment: Fluorescence-based biochemical high throughput dose response assay for activators of the calcium sensitivity of cardiac Regulated Thin Filaments (RTF). [Related pubchem assays (depositor defined):AID493008, AID493018, AID504382, AID504383]; format: protein-complex assay
[1] = molecular target: T1, E3 ubiquitin-protein ligase XIAP (Homo sapiens, UniProt P98170); experiment: Counter Screen using XIAP-Bir3 for Chemical Antagonists of Bir1/2 domains of IAP-family anti-apoptotic proteins. [Related pubchem assays (depositor defined):AID1018, AID1449, AID1514, AID1638, AID1749, AID1750, AID488957, AID488963]
[2] = molecular target: T1, E3 ubiquitin-protein ligase XIAP; experiment: small molecules displacing peptide from XIAP – biochemical, IAP family, fluorescence polarization (AID 1018); format: functional
HEK293 [3] = experiment: inhibition of NOD1-driven NF-kB reporter – cell-based, luminescence, uHTS, primary screen (AID 1578); format: functional; conditions: Homo sapiens
BJ [4] = experiment: BJ-TERT fibroblast viability loss – cell-based, RAS-independent, luminescence, dose response (AID 1933); format: functional; conditions: Homo sapiens
HEK293 [5] = experiment: cells; format: functional, cell-based; conditions: Homo sapiens
BJ [6] = experiment: cells; format: functional, cell-based; conditions: Homo sapiens
HEK293 [7] = experiment: cells; format: functional, cell-based; conditions: Homo sapiens; remark: listed apart in the source
[8] = molecular target: Nucleotide-binding oligomerization domain-containing protein 2 (Homo sapiens, UniProt Q9HC29); experiment: inhibition of NOD2-driven NF-kB reporter – cell-based, luminescence, uHTS, HEK293 (AID 1566); format: functional
HEK293 [9] = experiment: NOD2 signaling inhibitors in MDP-stimulated cells, cell-based, uHTS, luminescence (AID 2001); format: functional; conditions: Homo sapiens
HEK293 [10] = experiment: cells; format: functional, cell-based; conditions: Homo sapiens; remark: listed apart in the source
BJ [11] = experiment: BJ-TERT-LT-ST fibroblast viability loss – cell-based, RAS-independent, luminescence, dose response (AID 1935); format: functional; conditions: Homo sapiens;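 note: BJ fibroblasts immortalized with TERT plus LT and ST oncogenes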
[12] = DRD fibroblast viability loss – cell-based, non-viral oncogenic, luminescence, dose response (AID 1934); format: functional; conditions: Homo sapiens
[13] = molecular target: T2, Microphthalmia-associated transcription factor (Homo sapiens, UniProt O75030); experiment: reducers of TRPM1 reporter luminescence, concentration series – cell-based, SK-MEL-5, cherry-picked, set 3, MITF inhibitor project, dose response (AID 493073); format: functional;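 note: SK-MEL-5 melanoma cells with luciferase driven by the MITF target TRPM1 promoter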
T2 sequence (O75030 whole entry): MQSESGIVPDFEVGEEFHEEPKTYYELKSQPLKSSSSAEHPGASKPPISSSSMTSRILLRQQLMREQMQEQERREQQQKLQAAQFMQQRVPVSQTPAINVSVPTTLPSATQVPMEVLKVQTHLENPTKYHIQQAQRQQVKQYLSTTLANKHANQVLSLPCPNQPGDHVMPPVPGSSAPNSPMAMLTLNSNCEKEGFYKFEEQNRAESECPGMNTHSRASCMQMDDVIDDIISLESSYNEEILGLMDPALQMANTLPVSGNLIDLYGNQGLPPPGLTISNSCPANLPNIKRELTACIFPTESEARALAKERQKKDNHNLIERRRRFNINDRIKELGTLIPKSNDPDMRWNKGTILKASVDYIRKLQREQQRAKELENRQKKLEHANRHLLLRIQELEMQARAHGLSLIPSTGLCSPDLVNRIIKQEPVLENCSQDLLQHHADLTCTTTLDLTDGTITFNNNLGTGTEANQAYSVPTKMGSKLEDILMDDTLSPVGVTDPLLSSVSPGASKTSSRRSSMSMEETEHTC

[14] = molecular target: T3, Replicative DNA helicase DnaB (Mycobacterium tuberculosis, UniProt P9WMR3); experiment: DnaB intein splicing inhibitors, dose response, biochemical, cell-free fluorescence (AID 449749); format: functional
T3 sequence (P9WMR3 whole entry): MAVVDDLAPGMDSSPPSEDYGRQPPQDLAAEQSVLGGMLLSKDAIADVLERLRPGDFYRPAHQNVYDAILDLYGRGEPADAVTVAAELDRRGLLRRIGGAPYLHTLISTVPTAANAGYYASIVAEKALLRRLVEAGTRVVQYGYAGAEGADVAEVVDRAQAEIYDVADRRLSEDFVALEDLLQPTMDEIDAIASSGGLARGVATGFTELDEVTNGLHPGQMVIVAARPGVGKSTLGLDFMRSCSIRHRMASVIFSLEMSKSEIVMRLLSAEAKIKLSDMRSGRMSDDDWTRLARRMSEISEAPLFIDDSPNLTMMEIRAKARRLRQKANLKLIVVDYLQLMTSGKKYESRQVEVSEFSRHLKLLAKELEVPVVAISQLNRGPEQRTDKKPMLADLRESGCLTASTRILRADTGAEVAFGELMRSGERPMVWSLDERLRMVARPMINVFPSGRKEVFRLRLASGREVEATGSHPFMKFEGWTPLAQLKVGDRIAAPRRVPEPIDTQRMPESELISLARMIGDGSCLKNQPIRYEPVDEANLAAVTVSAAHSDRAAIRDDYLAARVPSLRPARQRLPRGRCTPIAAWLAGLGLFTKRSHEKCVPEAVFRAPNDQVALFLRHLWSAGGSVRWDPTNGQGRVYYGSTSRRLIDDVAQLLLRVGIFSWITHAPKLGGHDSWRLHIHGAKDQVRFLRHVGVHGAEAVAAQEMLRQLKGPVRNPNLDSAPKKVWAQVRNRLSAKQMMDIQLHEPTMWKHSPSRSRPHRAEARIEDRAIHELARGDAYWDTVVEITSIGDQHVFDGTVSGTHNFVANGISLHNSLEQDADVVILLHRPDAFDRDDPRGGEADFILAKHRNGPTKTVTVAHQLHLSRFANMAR

Protein RecA = molecular target: T4, Protein RecA (Mycobacterium tuberculosis, UniProt P9WHJ3); experiment: Fluorescence Cell-Free Homogeneous Dose Retest to Identify Inhibitors of RecA-Intein Splicing Activity. [Related pubchem assays (depositor defined):AID2097, AID2223, AID489010, AID492950]; format: functional
T4 sequence (P9WHJ3 whole entry): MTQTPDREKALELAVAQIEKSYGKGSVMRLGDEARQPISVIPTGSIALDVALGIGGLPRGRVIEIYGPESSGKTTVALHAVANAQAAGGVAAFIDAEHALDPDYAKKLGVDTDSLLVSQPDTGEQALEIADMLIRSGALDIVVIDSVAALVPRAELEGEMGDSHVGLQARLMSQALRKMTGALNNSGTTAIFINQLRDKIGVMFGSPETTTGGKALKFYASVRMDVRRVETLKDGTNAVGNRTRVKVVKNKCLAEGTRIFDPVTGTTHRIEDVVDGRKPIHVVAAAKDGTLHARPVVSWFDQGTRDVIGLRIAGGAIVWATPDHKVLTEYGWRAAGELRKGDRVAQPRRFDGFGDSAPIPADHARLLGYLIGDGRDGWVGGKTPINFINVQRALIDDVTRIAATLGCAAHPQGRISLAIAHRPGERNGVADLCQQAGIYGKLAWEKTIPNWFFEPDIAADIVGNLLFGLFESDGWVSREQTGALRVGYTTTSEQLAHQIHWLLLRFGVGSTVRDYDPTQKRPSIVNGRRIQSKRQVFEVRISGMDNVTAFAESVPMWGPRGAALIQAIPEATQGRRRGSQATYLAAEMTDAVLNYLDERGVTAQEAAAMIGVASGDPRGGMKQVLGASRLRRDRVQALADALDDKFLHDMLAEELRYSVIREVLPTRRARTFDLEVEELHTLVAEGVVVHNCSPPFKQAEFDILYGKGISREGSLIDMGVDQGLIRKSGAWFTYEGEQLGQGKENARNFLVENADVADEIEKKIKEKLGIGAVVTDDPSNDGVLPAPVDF

[15] = test system: Streptococcus sp. 'group A'; experiment: Streptococcus pyogenes SK(-)GAS viability under kanamycin – luminescence, BacTiterGlo, confirmation, counter-screen for streptokinase expression inhibitor project, dose response (AID 1900); format: functional, organism-based
Streptokinase A = molecular target: T5, Streptokinase A (Streptococcus pyogenes serotype M1, UniProt P10520); experiment: viability-normalized secreted streptokinase activity reduction – plasminogen activation absorbance, OD405, dose response (AID 1914); format: functional, Streptococcus pyogenes M1 GAS;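 note: secreted streptokinase activity via plasminogen activation per viability signal from cell pellet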
T5 sequence (P10520 whole entry): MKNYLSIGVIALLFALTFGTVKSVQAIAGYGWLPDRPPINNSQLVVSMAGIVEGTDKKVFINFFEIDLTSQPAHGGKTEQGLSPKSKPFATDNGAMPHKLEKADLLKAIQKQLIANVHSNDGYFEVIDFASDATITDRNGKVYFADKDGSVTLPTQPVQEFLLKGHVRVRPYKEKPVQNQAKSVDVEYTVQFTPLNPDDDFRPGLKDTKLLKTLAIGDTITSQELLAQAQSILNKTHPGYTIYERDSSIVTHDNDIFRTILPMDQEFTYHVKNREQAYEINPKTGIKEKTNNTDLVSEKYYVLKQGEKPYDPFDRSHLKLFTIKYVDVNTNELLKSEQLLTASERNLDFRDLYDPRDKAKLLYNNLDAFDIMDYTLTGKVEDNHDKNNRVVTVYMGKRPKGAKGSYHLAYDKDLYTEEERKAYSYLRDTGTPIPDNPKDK

[16] = molecular target: T6, Kappa-type opioid receptor (Homo sapiens, UniProt P41145); format: functional
Beta-galactosidase = Beta-galactosidase (Escherichia coli, UniProt Q8VNN2); format: functional
[17] = molecular target: T6, Kappa-type opioid receptor; format: functional; remark: listed apart in the source
Streptococcus = experiment: GAS UMAA2166 growth inhibition – luminescence, BacTiterGlo, counter-screen for streptokinase expression inhibitor project, dose response (AID 1915); format: functional, organism-based;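 note: potency for reduction of bacterial viability or growth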
Insulin-degrading enzyme [18] = molecular target: T7, Insulin-degrading enzyme (Homo sapiens, UniProt P14735); experiment: recombinant IDE activation, cell-free – biochemical, fluorescence polarization, counter-screen for IDE activator project, dose response (AID 588681)
T7 sequence (P14735 whole entry): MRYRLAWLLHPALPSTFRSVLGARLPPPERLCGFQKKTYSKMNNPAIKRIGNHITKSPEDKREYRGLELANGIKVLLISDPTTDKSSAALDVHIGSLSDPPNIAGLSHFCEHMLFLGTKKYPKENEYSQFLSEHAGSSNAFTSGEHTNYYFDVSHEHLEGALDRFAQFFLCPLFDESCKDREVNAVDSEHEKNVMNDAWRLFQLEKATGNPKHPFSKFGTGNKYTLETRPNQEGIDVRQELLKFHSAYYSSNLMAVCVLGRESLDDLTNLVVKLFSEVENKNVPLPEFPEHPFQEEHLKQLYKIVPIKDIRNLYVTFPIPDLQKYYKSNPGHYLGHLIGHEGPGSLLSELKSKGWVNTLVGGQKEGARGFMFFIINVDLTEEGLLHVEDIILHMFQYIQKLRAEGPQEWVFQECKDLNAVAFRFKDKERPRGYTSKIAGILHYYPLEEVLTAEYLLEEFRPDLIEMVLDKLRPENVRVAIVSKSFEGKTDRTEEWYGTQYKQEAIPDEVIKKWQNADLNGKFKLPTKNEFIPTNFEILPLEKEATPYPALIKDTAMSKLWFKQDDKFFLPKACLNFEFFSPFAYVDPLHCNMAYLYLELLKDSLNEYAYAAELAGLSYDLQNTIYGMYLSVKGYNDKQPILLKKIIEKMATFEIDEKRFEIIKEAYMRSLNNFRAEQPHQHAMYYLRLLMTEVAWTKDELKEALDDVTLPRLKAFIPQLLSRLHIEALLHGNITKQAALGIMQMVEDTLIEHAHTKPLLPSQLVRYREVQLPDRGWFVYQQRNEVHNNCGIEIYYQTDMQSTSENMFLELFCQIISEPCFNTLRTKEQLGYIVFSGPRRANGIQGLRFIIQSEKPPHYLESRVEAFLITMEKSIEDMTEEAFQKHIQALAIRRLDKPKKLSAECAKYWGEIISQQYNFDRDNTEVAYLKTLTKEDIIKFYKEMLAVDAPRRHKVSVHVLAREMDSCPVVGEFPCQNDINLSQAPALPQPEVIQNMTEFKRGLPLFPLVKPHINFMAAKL

Insulin-degrading enzyme [19] = molecular target: T7, Insulin-degrading enzyme; experiment: cellular IDE activation of Abeta substrate cleavage – fluorescence polarization, HEK cells, dose response (AID 588439); format: functional, cell-based
INS1 = experiment: INS-1E survival protection against cytokine death – cell-based, luminescence, retest, dose response (AID 449756); format: functional; conditions: Rattus norvegicus;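 note: cell death triggered by IL-1 beta plus TNF-alpha plus IFN-gamma mixture; protective hits raise ATP signal compared with cytokine alone wells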
HEK293 [20] = experiment: membrane integrity loss in HEK cells – cell-based, fluorescence, cytotoxicity control for IDE activator project, dose response (AID 588440); format: functional; conditions: Homo sapiens;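 note: cytotoxicity by LDH release measuring loss of membrane integrity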
HEK293 [21] = experiment: optical interference in Abeta FP readout, dose response, artefact control for IDE activator project, biochemical, fluorescence polarization (AID 588442); format: functional, cell-based; conditions: Homo sapiens

CC(=O)Nc1cc(C(=O)NCc2ccco2)ccc1Sc1ccc(F)cc1
EC50 (Troponin, cardiac muscle): > 71.5 µM (inactive)

Cc1ccc(S(=O)(=O)c2cn(CC(=O)Nc3ccccc3)c3ccc(F)cc3c2=O)cc1
IC50 [1]: > 100 µM (inactive)
IC50 [2]: > 100 µM (not active)

COCCN(C(=O)CCl)C(C(=O)NC1CCCCC1)c1ccccc1C (configuration not stated)
EC50 (HEK293 [3]): 4.73 µM (active)
EC50 (BJ [4]): 8.42 µM (active)
IC50 (HEK293 [5]): 6.54 µM (active)
EC50 (BJ [6]): 14.4 µM (active)
IC50 (HEK293 [7]): 14.9 µM (active)
EC50 [8]: > 20 µM (inactive)
IC50 (HEK293 [9]): 6.74 µM (active)
IC50 (HEK293 [10]): > 20 µM (inactive)
EC50 (BJ [11]): > 150 µM (inconclusive)
EC50 [12]: 10.5 µM (active)
AC50 [13]: 17.8 µM (active)
AC50 [14]: 25 µM (active)
EC50 (Protein RecA): 1.28 µM (active)

CCOc1cc(/C=N/Nc2cc(C)nc(-n3nc(C)cc3C)n2)ccc1O
EC50 [15]: 1.67 µM (active)
EC50 (Streptokinase A): > 150 µM (not active)
IC50 [16]: > 31.5 µM (inactive)
EC50 (Beta-galactosidase): > 31.5 µM (inactive)
IC50 [17]: > 32 µM
EC50 (Streptococcus): 32.7 µM (active)
EC50 (Insulin-degrading enzyme [18]): > 54.7 µM (inactive)
EC50 (Insulin-degrading enzyme [19]): > 54.7 µM (inactive)
AC50 (INS1): 0.862 µM (active)
IC50 (HEK293 [20]): 32.3 µM (inactive)
EC50 (HEK293 [21]): > 54.7 µM (inactive)

Reference: ChEMBL document CHEMBL1201862, “PubChem BioAssay data set” (2004)
